The supplement of paper PMC10307832

What was measured:
Test in all cases: relative viability (nuclei count vs DMSO), 5 days (fraction); higher = more cells survive
[1] = compound: CN(C)CC1=CC(=CC=C1)N=C(C2=CC=CC=C2)C3=C(NC4=C3C=CC(=C4)C(=O)N(C)C)O + Nc1nc2[nH]cc(CCc3ccc(C(=O)N[C@@H](CCC(=O)O)C(=O)O)cc3)c2c(=O)[nH]1 [Pemetrexed] (partner 0.2 µM)
In short: (§1)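 Cells from lung cancer lines were seeded into 1536-well plates and, one day later, dosed by pin tool. Treatments were either a single drug or a fixed dose of an anchor drug with five library-drug doses (not always all listed) in √10 steps. After 5 days, nuclei were stained in a one-step fixation (final 0.05% Triton X-100, 1% formaldehyde, 1 ug/ml Hoechst) and counted on 4× images, and relative viability is the treated-to-vehicle nuclei ratio, as the median of duplicate plates.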

[2] = compound: CN(C)CC1=CC(=CC=C1)N=C(C2=CC=CC=C2)C3=C(NC4=C3C=CC(=C4)C(=O)N(C)C)O + NC(=O)Nc1cc(-c2cccc(F)c2)sc1C(=O)N[C@H]1CCCNC1 [AZD7762] (partner 0.2 µM)
In short: as §1

[3] = compound: CN(C)CC1=CC(=CC=C1)N=C(C2=CC=CC=C2)C3=C(NC4=C3C=CC(=C4)C(=O)N(C)C)O + COc1cccc2cc(-c3nc([C@H]4CC[C@H](C(=O)O)CC4)n4ncnc(N)c34)[nH]c12 [OSI-027] (partner 0.5 µM)
In short: as §1

[4] = compound: CN(C)CC1=CC(=CC=C1)N=C(C2=CC=CC=C2)C3=C(NC4=C3C=CC(=C4)C(=O)N(C)C)O + COc1cc2c(Oc3ccc(NC(=O)C4(C(=O)Nc5ccc(F)cc5)CC4)cc3F)ccnc2cc1OCCCN1CCOCC1 [Foretinib] (partner 0.25 µM)
In short: as §1

Cell Line | relative viability ([1]; first compound 0.253 µM) | relative viability ([1]; first compound 0.8 µM) | relative viability ([1]; first compound 2.53 µM) | relative viability ([1]; first compound 8 µM) | relative viability ([2]; first compound 0.253 µM) | relative viability ([2]; first compound 0.8 µM) | relative viability ([2]; first compound 2.53 µM) | relative viability ([2]; first compound 8 µM) | relative viability ([3]; first compound 0.08 µM) | relative viability ([3]; first compound 0.253 µM) | relative viability ([3]; first compound 0.8 µM) | relative viability ([3]; first compound 2.53 µM) | relative viability ([3]; first compound 8 µM) | relative viability ([4]; first compound 0.08 µM) | relative viability ([4]; first compound 0.253 µM) | relative viability ([4]; first compound 0.8 µM) | relative viability ([4]; first compound 2.53 µM) | relative viability ([4]; first compound 8 µM) | relative viability ([1]; first compound 0.08 µM) | relative viability ([2]; first compound 0.08 µM)
NCI-H23 | 0.718 | 0.962 | 0.776 | 0.596 | 0.243 | 0.255 | 0.324 | 0.319 | 0.609 | 0.696 | 0.518 | 0.683 | 0.378 | 1.1 | 1.1 | 0.622 | 1.18 | 0.81 | – | –
NCI-H1355 | 0.991 | 0.926 | 0.949 | 1.02 | 0.665 | 0.597 | 0.541 | 0.641 | 0.463 | 0.457 | 0.393 | 0.491 | 0.329 | 0.684 | 1.05 | 0.922 | 0.919 | 1.02 | 1.03 | 0.869
NCI-H596 | 0.554 | 0.484 | 0.502 | 0.521 | 1.29 | 0.979 | 1.06 | 0.987 | 0.738 | 1.03 | 0.639 | 0.744 | 0.659 | 0.593 | 0.971 | 0.845 | 0.883 | 0.807 | 0.493 | 1.22
NCI-H1395 | 0.931 | 0.992 | 0.763 | 0.834 | 0.343 | 0.446 | 0.39 | 0.42 | 0.647 | 0.813 | 0.711 | 0.62 | 0.628 | 0.97 | 1.01 | 1.04 | 0.854 | 0.92 | 0.915 | 0.406
NCI-H2170 | 0.281 | 0.29 | 0.264 | 0.271 | 0.88 | 0.589 | 0.867 | 0.682 | 0.739 | 0.75 | 0.465 | 0.69 | 0.676 | 0.99 | 1.01 | 1.03 | 0.966 | 0.857 | 0.245 | 0.921
NCI-H2085 | 0.948 | 0.832 | 0.908 | 0.901 | 0.978 | 0.995 | 0.988 | 0.969 | 0.856 | 1.15 | 0.582 | 0.955 | 0.768 | 1 | 0.865 | 1.15 | 1.13 | 0.954 | 0.87 | 1.03
